Assay results reported in patent publication US20110230367A1, “Amphiphilic Peptides Promoting Production of Target miRNA and Method of Regulating Production of Target miRNA” (SNU R&DB FOUNDATION, priority 2009, published 2011).
Read-outs that look alike come from different tables or passages of the source.

Legend:
pre-let7a-1 = experiment: Dissociation constant by competitive fluorescence anisotropy with rhodamine-rev peptide probe; type: binding; settings: for Discrimination ratio pre-let7a-1 (in parenthesis): Kd against other RNA (HBV, IRES, other miRNAs)/Kd against target miRNA
Experimental: (§1) The binding affinity between the peptide synthesized in <Example 1> and pre-miRNA from <Example 2> were measured by fluorescence anisotropy using competitive binding method. A rev peptide with rhodamine attached at the N-terminal was used as a fluorescent probe and LS-55 luminescence spectrometer from Perkin-Elmer was use for analysis. A constant temperature of 20° C. was maintained by a water bath. The fluorescent intensity was measured by of 200 nM of rhodamine-rev peptide was measured with an excitation wavelength at 550 nm (band path 10 nm) and detection at 580 nm (band path 10 nm). The integration time […]. Each experimental value is the mean value of 5 measurements. A 20 mM of HEPES{4-(2-hydroxyethyl)-1-piperazineethanesulfonic acid} buffer (pH 7.5) containing 140 mM NaCl, 5 mM KCl and 1 mM MgCl2 was used for measuring the dissociation constant. The dissociation constant was determined according to the Mathematical Formula 1 and using Kaledia graph.
(§2) A and Ao are the fluorescence anistropy in the presence or absence of RNA, whereas ΔA is the difference between these two values. [RNA]0 and [Rh-rev]0 are initial concentrations of RNA and rev peptide binding with rhodamine.
(§3) According the method described in <Example 3>, the dissociation constant between second generation peptide and 2 pre-miRNAs synthesized from <Example 2> was determined using fluorescent polarization detection method and fluorescent probe molecule.

pre-miR16-1 = experiment: as above; type: binding; settings: for Discrimination ratio pre-miR16-1 (in parenthesis): Kd against other RNA/Kd against target miRNA
Experimental: as §1, §2, §3

pre-miR24-1 = experiment: as above; type: binding; settings: for Kd / Discrimination ratio pre-miR24-1 (in parenthesis): Table 6; for Discrimination ratio pre-miR24-1 (in parenthesis): Kd against other RNA/Kd against target miRNA
Experimental: as §1, §2, §3

HBV (hairpin RNA) = experiment: as above; type: binding; settings: Table 6
Experimental: as §1, §2, §3

IRES (hairpin RNA) = experiment: as above; type: binding; settings: Table 6
Experimental: as §1, §2, §3

[1] = system: recombinant human Dicer processing pre-let7a-1; experiment: Dicer activity assay in the presence of peptide, substrate pre-let7a-1; type: biochemical; settings: 400 nM peptide, pre-let7a-1 substrate, FIG. 2
Experimental: Two types of pre-miRNA (pre-let7a-1, pre-miR16-1) used as the substrate for the Dicer enzyme activity assay was ordered and manufactured by ST Pharm Co., Ltd (FIG. 1). For Dicer activity assay, the 5′ end of the synthesized pre-miRNA was labeled with ^32p isotope. Two pmole of each pre-miRNA was isotope labeled with […] of [g-^32P]ATP (New England Biolabs) using 10 units of T4 polynucleotide kinase (New England Biolabs). Total volume of 10 μl was isotope labeled for 1 hr at 37° C. The isotope labeled RNA obtained after the reaction was purified using G-25 Sephadex column (Sigma). The purified substrate was used for measuring Dicer enzyme activity. Total reaction mixture of 30 μl containing 1 nM of isotope labeled pre-miRNA and 0.001 u/μl of recombinant human Dicer (Genlantis, CA, USA) were incubated at 37° C. in 24 mM 4-(2-hydroxyethyl)-1-piperazineethanesulfonic acid, HEPES) buffer system containing 200 mM NaCl, 0.04 mM EDTA, 1 mM ATP and 2.5 mM MgCl2(pH 8.0). After reacting for 0, 10, 30, […], 3 μl of each reaction mixture was mixed with 5 μl of RNA gel loading buffer {95% formamide, 10 mM ethylenediaminetetraacetic acid (EDTA), 0.05% FF (xylene cyanol FF)} and incubated for 5 min at 65° C. The amount of the reaction product was determined by gel running in 15% polyacrylamide gel containing 7M urea, and then the initial reaction velocity (V0) from each reaction was compared. The initial reaction velocity (V0) of the enzyme is the reaction velocity of the initial linear time (until 30 min). Each initial velocity was normalized with the initial velocity from each substrate condition without peptide treatment. The initial reaction velocity of Dicer for pre-let7a-1 and pre-miR16-1 without peptide treatment were […] and 0.018 fmole/min, respectively. Each of the initial reaction velocity is a mean data of more than 3 measurements, and the standard deviation is shown as error bars.

[2] = system: recombinant human Dicer processing pre-miR16-1; experiment: Dicer activity assay in the presence of peptide, substrate pre-miR16-1; type: biochemical; settings: 400 nM peptide, pre-miR16-1 substrate, FIG. 2
Experimental: Two types of pre-miRNA (pre-let7a-1, pre-miR16-1) used as the substrate for the Dicer enzyme activity assay was ordered and manufactured by ST Pharm Co., Ltd (FIG. 1). For Dicer activity assay, the 5′ end of the synthesized pre-miRNA was labeled with ^32p isotope. Two pmole of each pre-miRNA was isotope labeled with […] of [g-^32P]ATP (New England Biolabs) using 10 units of T4 polynucleotide kinase (New England Biolabs). Total volume of 10 μl was isotope labeled for 1 hr at 37° C. The isotope labeled RNA obtained after the reaction was purified using G-25 Sephadex column (Sigma). The purified substrate was used for measuring Dicer enzyme activity. Total reaction mixture of 30 μl containing 1 nM of isotope labeled pre-miRNA and 0.001 u/μl of recombinant human Dicer (Genlantis, CA, USA) were incubated at 37° C. in 24 mM 4-(2-hydroxyethyl)-1-piperazineethanesulfonic acid, HEPES) buffer system containing 200 mM NaCl, 0.04 mM EDTA, 1 mM ATP and 2.5 mM MgCl2(pH 8.0). After reacting for 0, 10, 30, 60 or 120 min in the presence of 400 nM concentration of 2b or 2c peptide, 3 μl of each reaction mixture was mixed with 5 μl of RNA gel loading buffer {95% formamide, 10 mM ethylenediaminetetraacetic acid (EDTA), 0.05% FF (xylene cyanol FF)} and incubated for 5 min at 65° C. The amount of the reaction product was determined by gel running in 15% polyacrylamide gel containing 7M urea, and then the initial reaction velocity (V0) from each reaction was compared. The initial reaction velocity (V0) of the enzyme is the reaction velocity of the initial linear time (until 30 min). Each initial velocity was normalized with the initial velocity from each substrate condition without peptide treatment. The initial reaction velocity of Dicer for pre-let7a-1 and pre-miR16-1 without peptide treatment were […] and 0.018 fmole/min, respectively. Each of the initial reaction velocity is a mean data of more than 3 measurements, and the standard deviation is shown as error bars.

[3] = Table 3, first generation peptides, 20° C., HEPES pH 7.5, read-out: Kd value with pre-let7a-1
[4] = Table 5, second generation peptides, read-out: Kd value against pre-let7a-1
[5] = Table 3, first generation peptides, 20° C., HEPES pH 7.5, read-out: Kd value with pre-miR16-1
[6] = Table 5, second generation peptides, read-out: Kd value against pre-miR16-1
[7] = Table 6, read-out: Kd pre-let7a-1
[8] = Table 6, read-out: Kd pre-miR16-1

Sequence | Kd (pre-let7a-1; [3]) [nM] | Kd (pre-let7a-1; [4]) [nM] | Kd (pre-miR16-1; [5]) [nM] | Kd (pre-miR16-1; [6]) [nM] | Kd (pre-miR24-1) [nM] | Discrimination ratio pre-miR24-1 (in parenthesis) (pre-miR24-1) | Discrimination ratio pre-let7a-1 (in parenthesis) (pre-let7a-1; Table 6) | Kd (pre-let7a-1; [7]) [nM] | Discrimination ratio pre-miR16-1 (in parenthesis) (pre-miR16-1; Table 6) | Kd (pre-miR16-1; [8]) [nM] | Kd (HBV (hairpin RNA)) [nM] | Kd (IRES (hairpin RNA)) [nM] | also measured
LKKLLKLLKKLLKLAG [Peptide 1, Ac-LKKLLKLLKKLLKLAG] | 17 | 17 | 12 | 12 | – | – | – | – | – | – | – | – | –
LKKLLKLLKKLLKWAG [Peptide 1h, Ac-LKKLLKLLKKLLKWAG] | 0.11 | – | 0.4 | – | – | – | – | – | – | – | – | – | binding with pre-let7a-1 (pre-let7a-1): significant increase in binding affinity; increase in binding affinity compared to the peptide with no tryptophan substitution (peptide 1) (pre-let7a-1; pre-miRNA not named, values fit pre-let7a-1): 150 times; binding with pre-miR16-1 (pre-miR16-1): significant increase in binding affinity
LKKLLKLLKKLWKLAG [Peptide 1g, Ac-LKKLLKLLKKLWKLAG] | 0.25 | – | 0.56 | – | – | – | – | – | – | – | – | – | –
LKKLLKLLKKLWKWAG [Peptide 2j, Ac-LKKLLKLLKKLWKWAG, 21] | – | 0.37 | – | 0.44 | 0.27 | 1.9 | 1.0 | 0.37 | 1.4 | 0.44 | 0.35 | 0.85 | –
LKKLLKLLKKWLKLAG [Peptide 1f, Ac-LKKLLKLLKKWLKLAG] | 0.32 | – | 0.48 | – | – | – | – | – | – | – | – | – | –
LKKLLKLLKKWLKWAG [Peptide 2i, Ac-LKKLLKLLKKWLKWAG, 20] | – | 0.31 | – | 0.47 | 0.53 | 1.2 | 4.4 | 0.31 | 1.6 | 0.47 | 0.82 | 1.2 | –
LKKLLKLLKKWWKLAG [Peptide 2h, Ac-LKKLLKLLKKWWKLAG, 19] | – | 1.5 | – | 2.6 | 1.5 | 1.9 | 1.8 | 1.5 | 1.0 | 2.6 | 5.7 | 1.7 | –
LKKLLKLWKKLLKLAG [Peptide 1e, Ac-LKKLLKLWKKLLKLAG] | 20 | – | 27 | – | – | – | – | – | – | – | – | – | initial reaction velocity (V0) of Dicer, normalized to no peptide [1]: did not increase; initial reaction velocity (V0) of Dicer, normalized to no peptide [2]: did not increase
LKKLLKWLKKLLKLAG [Peptide 1d, Ac-LKKLLKWLKKLLKLAG] | 0.64 | – | 1.8 | – | – | – | – | – | – | – | – | – | –
LKKLLKWLKKLLKWAG [Peptide 2g, Ac-LKKLLKWLKKLLKWAG, 18] | – | 0.96 | – | 1.1 | 0.47 | 2.3 | 0.85 | 0.96 | 0.99 | 1.1 | 1 | 1.3 | discrimination ratio for pre-miR24-1 (pre-miR24-1): 2.3
LKKLWKLLKKLLKLAG [Peptide 1c, Ac-LKKLWKLLKKLLKLAG] | 0.41 | – | 0.56 | – | – | – | – | – | – | – | – | – | –
LKKLWKLLKKLLKWAG [Peptide 2f, Ac-LKKLWKLLKKLLKWAG, 17] | – | 0.9 | – | 2.1 | 2.2 | 0.66 | 9.3 | 0.96 | 1.2 | 2.1 | 0.38 | 3.8 | –
LKKWLKLLKKLLKLAG [Peptide 1b, Ac-LKKWLKLLKKLLKLAG] | 0.68 | – | 1.2 | – | – | – | – | – | – | – | – | – | –
WKKLLKLLKKLLKLAG [Peptide 1a, Ac-WKKLLKLLKKLLKLAG] | 0.17 | – | 0.42 | – | – | – | – | – | – | – | – | – | binding with pre-let7a-1 (pre-let7a-1): significant increase in binding affinity; binding with pre-miR16-1 (pre-miR16-1): significant increase in binding affinity
WKKLLKLLKKLLKWAG [Peptide 2e, Ac-WKKLLKLLKKLLKWAG, 16] | – | 0.22 | – | 0.28 | 0.84 | 0.50 | 1.7 | 0.9 | 2.3 | 0.28 | 0.34 | 0.76 | discrimination ratio for pre-miR16-1 (pre-miR16-1; against other RNAs): 2.3
WKKLLKLLKKLWKLAG [Peptide 2d, Ac-WKKLLKLLKKLWKLAG, 15] | – | 0.25 | – | 0.64 | 0.67 | 1.0 | 1.2 | 0.22 | 1.2 | 0.64 | 0.79 | 0.77 | –
WKKLWKLLKKLLKLAG [Peptide 2a, Ac-WKKLWKLLKKLLKLAG, 12] | – | 0.23 | – | 0.32 | 0.82 | 0.66 | 2.8 | 0.23 | 2.6 | 0.32 | 0.77 | 0.9 | –
